Results taken from patent publication US8497287B2, “Aminotetralin compounds as mu opioid receptor antagonists” (priority 2007, dated 2013).

Columns and labels:
human mu opioid receptor [1] = biological target: T1, human mu opioid receptor (Homo sapiens, UniProt P35372); assay: biochemical; conditions: read-out: intrinsic activity (IA), expressed as a percentage
T1 construct: host or cells: CHO-K1 cells, membranes

human mu opioid receptor [2] = biological target: T1, human mu opioid receptor; assay: biochemical; format: binding
[3] = test system: loperamide-induced delayed gastric emptying; assay: Rat gastric emptying assay, reversal of loperamide-induced delayed gastric emptying; format: in vivo; conditions: administered orally, loperamide 1 mg/kg s.c., gastric emptying model

T1 sequence (P35372 whole entry): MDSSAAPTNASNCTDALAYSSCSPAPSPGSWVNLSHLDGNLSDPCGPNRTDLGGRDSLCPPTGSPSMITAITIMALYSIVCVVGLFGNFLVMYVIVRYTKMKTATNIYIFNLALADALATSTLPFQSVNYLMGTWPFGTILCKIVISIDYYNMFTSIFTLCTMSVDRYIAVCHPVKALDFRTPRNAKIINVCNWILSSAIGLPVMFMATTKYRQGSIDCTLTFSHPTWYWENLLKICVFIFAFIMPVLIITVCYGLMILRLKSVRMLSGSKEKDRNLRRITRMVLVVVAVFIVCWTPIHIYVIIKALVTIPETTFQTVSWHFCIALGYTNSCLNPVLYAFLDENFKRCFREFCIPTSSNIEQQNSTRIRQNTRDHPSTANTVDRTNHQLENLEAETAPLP

`COC1Cc2ccc(C(N)=O)cc2C(C)(C)C1NCCC(=O)N1CCCCC1` (racemic) [Example 1, trans-6-Methoxy-8,8-dimethyl-7-(3-oxo-3-piperidin-1-yl-propylamino)-5,6,7,8-tetrahydro-naphthalene-2-carboxylic acid amide] was tested, and the Emax (human mu opioid receptor [1]) was 0%, the Ki (human mu opioid receptor [2]) was 100 pM and the “ID50, dose required for 50% reversal of the effects of loperamide” value [3] was 0.48 mg/kg.

`CCC1(CC)c2cc(O)ccc2C[C@@H](OC)[C@@H]1NCC(Cc1ccccc1)C(=O)O` (relative stereo) [Example 11, 2-Benzyl-3-(trans-1,1-diethyl-7-hydroxy-3-methoxy-1,2,3,4-tetrahydro-naphthalen-2-ylamino)-propionic acid] gave an Emax (human mu opioid receptor [1]) of -6% and a Ki (human mu opioid receptor [2]) of 1260 pM.
